Experimental data reported in US20020137929A1, “1 - (3-heterocyclylphenyl) isothiourea, -isourea, -guanidine and -amidine herbicidal agents” (Intellectual Property Department, BASF Aktiengesellschaft, priority 1998, published 2002).

Legend:
ABUTH (Velvetleaf) [1] = assay: Postemergence herbicidal evaluation; format: in vivo, Abutilon theophrasti; conditions: postemergence
Method in brief: (§1)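 Herbicidal effect was judged by eye on a 0–9 scale covering stand, vigor, deformity, size and chlorosis, compared with controls, four to five weeks after seedlings about two weeks old were sprayed (40 psi, ~0.0156–0.500 kg/ha).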

[2] = test system: CHEAL (Lambsquarters, Common); assay: Postemergence herbicidal evaluation; format: in vivo, Chenopodium album; conditions: postemergence
Method in brief: as §1

[3] = test system: IPOHE (Morningglory, Ivyleaf); assay: Postemergence herbicidal evaluation; format: in vivo, Ipomoea hederacea; conditions: postemergence
Method in brief: as §1

ECHCG (Barnyardgrass) [4] = assay: Postemergence herbicidal evaluation; format: in vivo, Echinochloa crus-galli; conditions: postemergence
Method in brief: as §1

SETVI (Foxtail, Green) = assay: Postemergence herbicidal evaluation; format: in vivo, Setaria viridis; conditions: postemergence
Method in brief: as §1

ORYSAT (Rice, Tebonnet) = assay: Postemergence herbicidal evaluation; format: in vivo, Oryza sativa, (L.) Tebonnet; conditions: postemergence
Method in brief: as §1

ZEAMX (Corn, Field) [5] = assay: Postemergence herbicidal evaluation; format: in vivo, Zea mays; conditions: postemergence
Method in brief: as §1

ABUTH (Velvetleaf) [6] = assay: Preemergence herbicidal evaluation; format: in vivo, Abutilon theophrasti; conditions: rated 4-5 weeks after treatment, rating scale 0-9
Method in brief: (§2)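 Steps: mix seeds into potting soil; plant atop ~1 inch soil; spray compound in aqueous acetone (~0.0156-0.500 kg/ha equivalent); maintain in greenhouse with watering; rate visually 0-9 versus control at 4-5 weeks.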

CASOB (Sicklepod) = assay: Preemergence herbicidal evaluation; format: in vivo, Cassia obtusifolia; conditions: rated 4-5 weeks after treatment, rating scale 0-9
Method in brief: as §2

[7] = test system: CHEAL (Lambsquarters, Common); assay: Preemergence herbicidal evaluation; format: in vivo, Chenopodium album; conditions: rated 4-5 weeks after treatment, rating scale 0-9
Method in brief: as §2

[8] = test system: IPOHE (Morningglory, Ivyleaf); assay: Preemergence herbicidal evaluation; format: in vivo, Ipomoea hederacea; conditions: rated 4-5 weeks after treatment, rating scale 0-9
Method in brief: as §2

ECHCG (Barnyardgrass) [9] = assay: Preemergence herbicidal evaluation; format: in vivo, Echinochloa crus-galli; conditions: rated 4-5 weeks after treatment, rating scale 0-9
Method in brief: as §2

[10] = test system: GLXMAW (Soybean, Williams); assay: Preemergence herbicidal evaluation; format: in vivo, Glycine max, (L.) Merr. cv Williams; conditions: rated 4-5 weeks after treatment, rating scale 0-9
Method in brief: as §2

[11] = test system: TRZAWR (Wheat, Winter, cv Riband); assay: Preemergence herbicidal evaluation; format: in vivo, Triticum aestivum; conditions: rated 4-5 weeks after treatment, rating scale 0-9
Method in brief: as §2

ZEAMX (Corn, Field) [12] = assay: Preemergence herbicidal evaluation; format: in vivo, Zea mays; conditions: rated 4-5 weeks after treatment, rating scale 0-9
Method in brief: as §2

CN(C)c1ccc(CN2C(=O)CSC2=Nc2cc(-n3c(=O)cc(C(F)(F)F)n(C)c3=O)c(F)cc2Cl)cc1 [Compound 138, 3-{4-Chloro-5-{{3-[p-(dimethylamino)benzyl]-4-oxo-2-thiazolidinylidene}amino}-2-fluorophenyl}-1-methyl-6-(trifluoromethyl)-2,4(1H,3H)-pyrimidinedione]
Herbicidal rating ABUTH (ABUTH (Velvetleaf) [1]; rate 0.0156 kg/ha): 9.0 | Herbicidal rating ABUTH (ABUTH (Velvetleaf) [1]; rate 0.0313 kg/ha): 9.0 | Herbicidal rating ABUTH (ABUTH (Velvetleaf) [1]; rate 0.0625 kg/ha): 9.0 | Herbicidal rating CHEAL ([2]; rate 0.0156 kg/ha): 9.0 | Herbicidal rating CHEAL ([2]; rate 0.0313 kg/ha): 9.0 | Herbicidal rating CHEAL ([2]; rate 0.0625 kg/ha): 9.0 | Herbicidal rating IPOHE ([3]; rate 0.0156 kg/ha): 9.0 | Herbicidal rating IPOHE ([3]; rate 0.0313 kg/ha): 9.0 | Herbicidal rating IPOHE ([3]; rate 0.0625 kg/ha): 9.0 | Herbicidal rating ECHCG (ECHCG (Barnyardgrass) [4]; rate 0.0156 kg/ha): 1.0 | Herbicidal rating ECHCG (ECHCG (Barnyardgrass) [4]; rate 0.0313 kg/ha): 1.0 | Herbicidal rating ECHCG (ECHCG (Barnyardgrass) [4]; rate 0.0625 kg/ha): 2.0 | Herbicidal rating SETVI (SETVI (Foxtail, Green); rate 0.0156 kg/ha): 3.0 | Herbicidal rating SETVI (SETVI (Foxtail, Green); rate 0.0313 kg/ha): 4.0 | Herbicidal rating SETVI (SETVI (Foxtail, Green); rate 0.0625 kg/ha): 9.0 | Herbicidal rating ORYSAT (ORYSAT (Rice, Tebonnet); rate 0.0156 kg/ha): 1.5 | Herbicidal rating ORYSAT (ORYSAT (Rice, Tebonnet); rate 0.0313 kg/ha): 2.5 | Herbicidal rating ORYSAT (ORYSAT (Rice, Tebonnet); rate 0.0625 kg/ha): 3.0 | Herbicidal rating ZEAMX (ZEAMX (Corn, Field) [5]; rate 0.0156 kg/ha): 4.0 | Herbicidal rating ZEAMX (ZEAMX (Corn, Field) [5]; rate 0.0313 kg/ha): 4.5 | Herbicidal rating ZEAMX (ZEAMX (Corn, Field) [5]; rate 0.0625 kg/ha): 5.0 | Preemergence herbicidal rating ABUTH (ABUTH (Velvetleaf) [6]; rate 0.0156 kg/ha): 0.0 | Preemergence herbicidal rating ABUTH (ABUTH (Velvetleaf) [6]; rate 0.0313 kg/ha): 0.0 | Preemergence herbicidal rating ABUTH (ABUTH (Velvetleaf) [6]; rate 0.0625 kg/ha): 0.0 | Preemergence herbicidal rating ABUTH (ABUTH (Velvetleaf) [6]; rate 0.1250 kg/ha): 9.0 | Preemergence herbicidal rating ABUTH (ABUTH (Velvetleaf) [6]; rate 0.2500 kg/ha): 9.0 | Preemergence herbicidal rating CASOB (CASOB (Sicklepod); rate 0.0156 kg/ha): 0.0 | Preemergence herbicidal rating CASOB (CASOB (Sicklepod); rate 0.0313 kg/ha): 0.0 | Preemergence herbicidal rating CASOB (CASOB (Sicklepod); rate 0.0625 kg/ha): 0.0 | Preemergence herbicidal rating CASOB (CASOB (Sicklepod); rate 0.1250 kg/ha): 0.0 | Preemergence herbicidal rating CASOB (CASOB (Sicklepod); rate 0.2500 kg/ha): 0.0 | Preemergence herbicidal rating CHEAL ([7]; rate 0.0156 kg/ha): 1.0 | Preemergence herbicidal rating CHEAL ([7]; rate 0.0313 kg/ha): 9.0 | Preemergence herbicidal rating CHEAL ([7]; rate 0.0625 kg/ha): 7.0 | Preemergence herbicidal rating CHEAL ([7]; rate 0.1250 kg/ha): 9.0 | Preemergence herbicidal rating CHEAL ([7]; rate 0.2500 kg/ha): 9.0 | Preemergence herbicidal rating IPOHE ([8]; rate 0.0156 kg/ha): 0.0 | Preemergence herbicidal rating IPOHE ([8]; rate 0.0313 kg/ha): 0.0 | Preemergence herbicidal rating IPOHE ([8]; rate 0.0625 kg/ha): 0.0 | Preemergence herbicidal rating IPOHE ([8]; rate 0.1250 kg/ha): 0.0 | Preemergence herbicidal rating IPOHE ([8]; rate 0.2500 kg/ha): 0.0 | Preemergence herbicidal rating ECHCG (ECHCG (Barnyardgrass) [9]; rate 0.0156 kg/ha): 0.0 | Preemergence herbicidal rating ECHCG (ECHCG (Barnyardgrass) [9]; rate 0.0313 kg/ha): 0.0 | Preemergence herbicidal rating ECHCG (ECHCG (Barnyardgrass) [9]; rate 0.0625 kg/ha): 0.0 | Preemergence herbicidal rating ECHCG (ECHCG (Barnyardgrass) [9]; rate 0.1250 kg/ha): 0.0 | Preemergence herbicidal rating ECHCG (ECHCG (Barnyardgrass) [9]; rate 0.2500 kg/ha): 0.0 | Preemergence herbicidal rating GLXMAW ([10]; rate 0.0156 kg/ha): 0.0 | Preemergence herbicidal rating GLXMAW ([10]; rate 0.0313 kg/ha): 0.0 | Preemergence herbicidal rating GLXMAW ([10]; rate 0.0625 kg/ha): 0.0 | Preemergence herbicidal rating GLXMAW ([10]; rate 0.1250 kg/ha): 0.0 | Preemergence herbicidal rating GLXMAW ([10]; rate 0.2500 kg/ha): 1.0 | Preemergence herbicidal rating TRZAWR ([11]; rate 0.0156 kg/ha): 0.0 | Preemergence herbicidal rating TRZAWR ([11]; rate 0.0313 kg/ha): 0.0 | Preemergence herbicidal rating TRZAWR ([11]; rate 0.0625 kg/ha): 0.0 | Preemergence herbicidal rating TRZAWR ([11]; rate 0.1250 kg/ha): 0.0 | Preemergence herbicidal rating TRZAWR ([11]; rate 0.2500 kg/ha): 0.0 | Preemergence herbicidal rating ZEAMX (ZEAMX (Corn, Field) [12]; rate 0.0156 kg/ha): 0.0 | Preemergence herbicidal rating ZEAMX (ZEAMX (Corn, Field) [12]; rate 0.0313 kg/ha): 0.0 | Preemergence herbicidal rating ZEAMX (ZEAMX (Corn, Field) [12]; rate 0.0625 kg/ha): 0.0 | Preemergence herbicidal rating ZEAMX (ZEAMX (Corn, Field) [12]; rate 0.1250 kg/ha): 0.0 | Preemergence herbicidal rating ZEAMX (ZEAMX (Corn, Field) [12]; rate 0.2500 kg/ha): 0.0
